Measurements from US20230085307A1, “PYRIDAZINONE COMPOUND AND HERBICIDE” (NISSAN CHEMICAL CORPORATION, priority 2019, published 2023).

Tests used:
rice flat sedge = test: Test Example 3: herbicidal effect by foliage application, Wagner pot (Table 18, symbol E); format: in vivo, rice flat sedge (Cyperus iria); settings: amount of applied herbicide 320 g/ha
Procedure, shortened: (§1)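 Plants were sown in alluvial soil held under 0.1–0.5 cm standing water and grown 14 days in a greenhouse at 25–30 °C. An emulsifiable formulation, water-diluted to the set dose, was then sprayed onto the foliage, and effects were scored three weeks later using previously defined criteria.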

wild oat [1] = test: Test Example 4: herbicidal effect by soil treatment (Table 19, symbol I); format: in vivo, wild oat (Avena fatua); settings: amount of applied herbicide 320 g/ha
Procedure, shortened: (§2)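 Herbicidal effect was rated 3 weeks after treatment, using the scoring criteria of an earlier test. The compound, formulated as an emulsion and diluted in water to a set herbicide amount, had been sprayed uniformly on soil over freshly sown seeds. Growth took place in a greenhouse at 25° C. to 30° C.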

persian speedwell [2] = test: Test Example 5: herbicidal effect by foliage application, plastic box (Table 20, symbol R); format: in vivo, Persian speedwell (Veronica persica); settings: foliage application, 320 g/ha, evaluated three weeks after application
Procedure, shortened: (§3)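 Foliar spray test: emulsion formulation diluted in water to a set application rate, sprayed onto 14-day-old plants raised in diluvial soil at 25° C to 30° C under glass. Both herbicidal effect and crop effect rated visually three weeks later.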

oval-leafed pondweed = test: Test Example 1: herbicidal activity, application before weed generation under submerged conditions (Table 16, symbol C); format: in vivo, oval-leafed pondweed (Monochoria vaginalis); settings: 320 g/ha applied herbicide
Procedure, shortened: (§4)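 Submerged Wagner pots (alluvial soil, 4 cm water) sown with weed seeds and planted with 2.5-leaf rice seedlings; emulsifiable concentrate diluted in water applied to water surface on sowing day. Held in greenhouse at 25-30 °C; injury scored 0-5 by herbicidal rate after three weeks.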

velvetleaf [3] = test: Test Example 4: herbicidal effect by soil treatment (Table 19, symbol M); format: in vivo, velvetleaf (Abutilon theophrasti); settings: amount of applied herbicide 320 g/ha
Procedure, shortened: as §2

Japanese bulrush = test: Test Example 1: herbicidal activity, application before weed generation under submerged conditions (Table 16, symbol B); format: in vivo, Japanese bulrush (Schoenoplectus juncoides); settings: 320 g/ha applied herbicide
Procedure, shortened: as §4

southern crabgrass [4] = test: Test Example 5: herbicidal effect by foliage application, plastic box (Table 20, symbol F); format: in vivo, southern crabgrass (Digitaria ciliaris); settings: foliage application, 320 g/ha, evaluated three weeks after application
Procedure, shortened: as §3

barnyard grass [5] = test: Test Example 4: herbicidal effect by soil treatment (Table 19, symbol H); format: in vivo, barnyard grass (Echinochloa crus-galli); settings: amount of applied herbicide 320 g/ha
Procedure, shortened: as §2

late watergrass = test: Test Example 1: herbicidal activity, application before weed generation under submerged conditions (Table 16, symbol A); format: in vivo, late watergrass (Echinochloa oryzicola); settings: 320 g/ha applied herbicide
Procedure, shortened: as §4

southern crabgrass [6] = test: Test Example 4: herbicidal effect by soil treatment (Table 19, symbol F); format: in vivo, southern crabgrass (Digitaria ciliaris); settings: amount of applied herbicide 320 g/ha
Procedure, shortened: as §2

chickweed [7] = test: Test Example 4: herbicidal effect by soil treatment (Table 19, symbol P); format: in vivo, common chickweed (Stellaria media); settings: amount of applied herbicide 320 g/ha
Procedure, shortened: as §2

green foxtail [8] = test: Test Example 4: herbicidal effect by soil treatment (Table 19, symbol G); format: in vivo, green foxtail (Setaria viridis); settings: amount of applied herbicide 320 g/ha
Procedure, shortened: as §2

persian speedwell [9] = test: Test Example 4: herbicidal effect by soil treatment (Table 19, symbol R); format: in vivo, Persian speedwell (Veronica persica); settings: amount of applied herbicide 320 g/ha
Procedure, shortened: as §2

blackgrass = test: Test Example 5: herbicidal effect by foliage application, plastic box (Table 20, symbol J); format: in vivo, blackgrass (Alopecurus myosuroides); settings: foliage application, 320 g/ha, evaluated three weeks after application
Procedure, shortened: as §3

windgrass [10] = test: Test Example 4: herbicidal effect by soil treatment (Table 19, symbol L); format: in vivo, windgrass (Apera spica-venti); settings: amount of applied herbicide 320 g/ha
Procedure, shortened: as §2

chickweed [11] = test: Test Example 5: herbicidal effect by foliage application, plastic box (Table 20, symbol P); format: in vivo, common chickweed (Stellaria media); settings: foliage application, 320 g/ha, evaluated three weeks after application
Procedure, shortened: as §3

green foxtail [12] = test: Test Example 5: herbicidal effect by foliage application, plastic box (Table 20, symbol G); format: in vivo, green foxtail (Setaria viridis); settings: foliage application, 320 g/ha, evaluated three weeks after application
Procedure, shortened: as §3

lambsquarters [13] = test: Test Example 4: herbicidal effect by soil treatment (Table 19, symbol O); format: in vivo, lambsquarters (Chenopodium album); settings: amount of applied herbicide 320 g/ha
Procedure, shortened: as §2

lambsquarters [14] = test: Test Example 5: herbicidal effect by foliage application, plastic box (Table 20, symbol O); format: in vivo, lambsquarters (Chenopodium album); settings: foliage application, 320 g/ha, evaluated three weeks after application
Procedure, shortened: as §3

barnyard grass [15] = test: Test Example 5: herbicidal effect by foliage application, plastic box (Table 20, symbol H); format: in vivo, barnyard grass (Echinochloa crus-galli); settings: foliage application, 320 g/ha, evaluated three weeks after application
Procedure, shortened: as §3

velvetleaf [16] = test: Test Example 5: herbicidal effect by foliage application, plastic box (Table 20, symbol M); format: in vivo, velvetleaf (Abutilon theophrasti); settings: foliage application, 320 g/ha, evaluated three weeks after application
Procedure, shortened: as §3

barnyard grass [17] = test: Test Example 3: herbicidal effect by foliage application, Wagner pot (Table 18, symbol H); format: in vivo, barnyard grass (Echinochloa crus-galli); settings: amount of applied herbicide 320 g/ha
Procedure, shortened: as §1

redroot pigweed [18] = test: Test Example 5: herbicidal effect by foliage application, plastic box (Table 20, symbol N); format: in vivo, redroot pigweed (Amaranthus retroflexus); settings: foliage application, 320 g/ha, evaluated three weeks after application
Procedure, shortened: as §3

windgrass [19] = test: Test Example 5: herbicidal effect by foliage application, plastic box (Table 20, symbol L); format: in vivo, windgrass (Apera spica-venti); settings: foliage application, 320 g/ha, evaluated three weeks after application
Procedure, shortened: as §3

redroot pigweed [20] = test: Test Example 4: herbicidal effect by soil treatment (Table 19, symbol N); format: in vivo, redroot pigweed (Amaranthus retroflexus); settings: amount of applied herbicide 320 g/ha
Procedure, shortened: as §2

wild oat [21] = test: Test Example 5: herbicidal effect by foliage application, plastic box (Table 20, symbol I); format: in vivo, wild oat (Avena fatua); settings: foliage application, 320 g/ha, evaluated three weeks after application
Procedure, shortened: as §3

Chinese sprangletop = test: Test Example 3: herbicidal effect by foliage application, Wagner pot (Table 18, symbol D); format: in vivo, chinese sprangletop (Leptochloa chinensis); settings: amount of applied herbicide 320 g/ha
Procedure, shortened: as §1

Italian ryegrass [22] = test: Test Example 4: herbicidal effect by soil treatment (Table 19, symbol K); format: in vivo, Italian ryegrass (Lolium multiflorum); settings: amount of applied herbicide 320 g/ha
Procedure, shortened: as §2

Italian ryegrass [23] = test: Test Example 5: herbicidal effect by foliage application, plastic box (Table 20, symbol K); format: in vivo, Italian ryegrass (Lolium multiflorum); settings: foliage application, 320 g/ha, evaluated three weeks after application
Procedure, shortened: as §3

CCCC(=O)Oc1c(C)nn(C)c(=O)c1-c1c(-c2cccc(OC(F)(F)F)c2)sc2ccc(F)cc12 [2-237]
herbicidal effect on E: rice flat sedge (rice flat sedge): 5 (Herbicidal rate of 90% or more (almost completely withered))
herbicidal effect on I: wild oat (wild oat [1]): 0 (Herbicidal rate of 5% or less (almost no effect))
herbicidal effect on R: persian speedwell (criteria 0-5) (persian speedwell [2]): 3 (Herbicidal rate of 40% or more and less than 70%)
Herbicidal effect on C: oval-leafed pondweed (grade 0-5) (oval-leafed pondweed): 0 (Herbicidal rate of 5% or less (almost no effect))
herbicidal effect on M: velvetleaf (velvetleaf [3]): 0 (Herbicidal rate of 5% or less (almost no effect))
Herbicidal effect on B: Japanese bulrush (grade 0-5) (Japanese bulrush): 0 (Herbicidal rate of 5% or less (almost no effect))
herbicidal effect on F: southern crabgrass (criteria 0-5) (southern crabgrass [4]): 0 (Herbicidal rate of 5% or less (almost no effect))
herbicidal effect on H: barnyard grass (barnyard grass [5]): 0 (Herbicidal rate of 5% or less (almost no effect))
Herbicidal effect on A: late watergrass (grade 0-5) (late watergrass): 3 (Herbicidal rate of 40% or more and less than 70%)
herbicidal effect on F: southern crabgrass (southern crabgrass [6]): 0 (Herbicidal rate of 5% or less (almost no effect))
herbicidal effect on P: chickweed (chickweed [7]): 5 (Herbicidal rate of 90% or more (almost completely withered))
herbicidal effect on G: green foxtail (green foxtail [8]): 0 (Herbicidal rate of 5% or less (almost no effect))
herbicidal effect on R: persian speedwell (persian speedwell [9]): 0 (Herbicidal rate of 5% or less (almost no effect))
herbicidal effect on J: blackgrass (criteria 0-5) (blackgrass): 0 (Herbicidal rate of 5% or less (almost no effect))
herbicidal effect on L: windgrass (windgrass [10]): 0 (Herbicidal rate of 5% or less (almost no effect))
herbicidal effect on P: chickweed (criteria 0-5) (chickweed [11]): 5 (Herbicidal rate of 90% or more (almost completely withered))
herbicidal effect on G: green foxtail (criteria 0-5) (green foxtail [12]): 0 (Herbicidal rate of 5% or less (almost no effect))
herbicidal effect on O: lambsquarters (lambsquarters [13]): 0 (Herbicidal rate of 5% or less (almost no effect))
herbicidal effect on O: lambsquarters (criteria 0-5) (lambsquarters [14]): 2 (Herbicidal rate of 20% or more and less than 40%)
herbicidal effect on H: barnyard grass (criteria 0-5) (barnyard grass [15]): 0 (Herbicidal rate of 5% or less (almost no effect))
herbicidal effect on M: velvetleaf (criteria 0-5) (velvetleaf [16]): 3 (Herbicidal rate of 40% or more and less than 70%)
herbicidal effect on H: barnyard grass (barnyard grass [17]): 3 (Herbicidal rate of 40% or more and less than 70%)
herbicidal effect on N: redroot pigweed (criteria 0-5) (redroot pigweed [18]): 5 (Herbicidal rate of 90% or more (almost completely withered))
herbicidal effect on L: windgrass (criteria 0-5) (windgrass [19]): 0 (Herbicidal rate of 5% or less (almost no effect))
herbicidal effect on N: redroot pigweed (redroot pigweed [20]): 0 (Herbicidal rate of 5% or less (almost no effect))
herbicidal effect on I: wild oat (criteria 0-5) (wild oat [21]): 0 (Herbicidal rate of 5% or less (almost no effect))
herbicidal effect on D: Chinese sprangletop (Chinese sprangletop): 4 (Herbicidal rate of 70% or more and less than 90%)
herbicidal effect on K: Italian ryegrass (Italian ryegrass [22]): 0 (Herbicidal rate of 5% or less (almost no effect))
herbicidal effect on K: Italian ryegrass (criteria 0-5) (Italian ryegrass [23]): 0 (Herbicidal rate of 5% or less (almost no effect))
